37 substances from patent publication US11840686B2, “Modulation of prekallikrein (PKK) expression” (Ionis Pharmaceuticals, Inc., priority 2013, dated 2023) can be followed below.

This data set concerns human PKK mRNA. Briefly: Antisense inhibition of human PKK mRNA in HepaRG cells, 1,000 nM, MOE/deoxy/cEt oligonucleotides (Example 3). Type of data set: cell-based. The procedure:
Additional antisense oligonucleotides were designed targeting a PKK nucleic acid and were tested for their effects on PKK mRNA in vitro.
The chimeric antisense oligonucleotides in the tables below were designed as deoxy, MOE and cEt gapmers. The gapmers are 16 nucleosides in length wherein the nucleoside have either a MOE sugar modification, a cEt sugar modification, or a deoxy modification. The ‘Chemistry’ column describes the sugar modifications of each oligonucleotide. ‘k’ indicates an cEt sugar modification; the number indicates the number of deoxynucleosides; otherwise, indicates a deoxynucleoside; and ‘e’ indicates a 2′-O-methoxyethyl modification. The internucleoside linkages throughout each gapmer are phosphorothioate linkages. All cytosine residues throughout each oligonucleotide are 5-methylcytosines. “Start site” indicates the 5′-most nucleoside to which the gapmer is targeted in the human gene sequence. “Stop site” indicates the 3′-most nucleoside to which the gapmer is targeted in the human gene sequence.
Cultured HepaRG™ cells at a density of 20,000 cells per well were transfected using electroporation with 1,000 nM antisense oligonucleotide. After a treatment period of approximately 24 hours, RNA was isolated from the cells and PKK mRNA levels were measured by quantitative real-time PCR. Human primer probe set RTS3454 was used to measure mRNA levels. ISIS 531231 was also included in this assay. PKK mRNA levels were adjusted according to total RNA content, as measured by RIBOGREEN®. The antisense oligonucleotides were tested in a series of experiments that had similar culture conditions. Results are presented as percent inhibition of PKK, relative to untreated control cells.

Setting [1] is: PKK mRNA, HepaRG cells, 1,000 nM antisense oligonucleotide, Table 31.
The mark [2] stands for this setting: Table 28, HepaRG cells, 1,000 nM antisense oligonucleotide, human PKK mRNA.
Where [3] appears, read: Table 20, HepaRG cells, electroporation with 1,000 nM antisense oligonucleotide, approximately 24 hours, PKK mRNA by RT-PCR (RTS3454), relative to untreated control cells.
[4] abbreviates: Table 22 experiment, HepaRG cells, electroporation with 1,000 nM antisense oligonucleotide, approx. 24 hours, PKK mRNA by RT-PCR (RTS3454), relative to untreated control cells.
[5] abbreviates: HepaRG cells, electroporation with 1,000 nM antisense oligonucleotide, approximately 24 hours, primer probe set RTS3454, relative to untreated control cells, experiment of Table 24.
[6] abbreviates: HepaRG cells, 1,000 nM antisense oligonucleotide, Table 29.
Setting [7] is: Table 19, HepaRG cells, electroporation with 1,000 nM antisense oligonucleotide, approximately 24 hours, PKK mRNA by RT-PCR (RTS3454), relative to untreated control cells.
Setting [8] is: HepaRG cells, electroporation with 1,000 nM antisense oligonucleotide, approx. 24 hours, PKK mRNA by RT-PCR (RTS3454), relative to untreated control cells, Table 25 experiment.
The mark [9] stands for this setting: Table 21 experiment, HepaRG cells, electroporation with 1,000 nM antisense oligonucleotide, approx. 24 hours, PKK mRNA by RT-PCR (RTS3454), relative to untreated control cells.
The mark [10] stands for this setting: HepaRG cells, electroporation with 1,000 nM antisense oligonucleotide, approx. 24 hours, PKK mRNA by RT-PCR (RTS3454), relative to untreated control cells, Table 26 experiment.

Strand notation (5' to 3'): a small letter for the sugar, then the base; units joined by * are phosphorothioate-linked, units joined directly phosphodiester-linked; [ ] holds rarer units or linkages, { } end groups; capitals alone tell only the bases. e = 2'-O-(2-methoxyethyl) (MOE); k = constrained ethyl (cEt); [5mC] = 5-methylcytosine; d = 2'-deoxy (DNA)

Turning to “548671 (antisense e[5mC]*eA*kA*d[5mC]*dA*dA*dT*d[5mC]*d[5mC]*dA*dA*dA*dG*k[5mC]*k[5mC]*eT) [compound 548671]”, the % inhibition (as a rule, the drop in the measured response relative to a control, in per cent) under setting [1] was 3%.

“548477 (eG*e[5mC]*kA*d[5mC]*dG*dA*dG*d[5mC]*dT*dT*dG*d[5mC]*d[5mC]*kT*kG*eT; antisense) [compound 548477]”: the “% inhibition” value under setting [2] is on record as 26%.

On to “547898 (e[5mC]*eT*kT*dT*dA*dA*dT*dA*dG*dG*d[5mC]*dA*dA*kT*kT*eG; antisense) [compound 547898]”, for which the “% inhibition” value amounted to 0% under setting [3] and 28% under setting [4].

Turning to “548639 (antisense eT*eG*kG*dG*dA*dA*dG*dA*dA*dA*d[5mC]*dT*dA*kG*k[5mC]*eA) [compound 548639]”, the “% inhibition” value under setting [1] worked out at 10%.

“548447 (antisense e[5mC]*eA*k[5mC]*dT*dG*dT*d[5mC]*d[5mC]*dT*dA*dT*dG*dT*k[5mC]*kA*e[5mC]) [compound 548447]”: the “% inhibition” value (Table 30, human PKK mRNA, HepaRG cells, 1,000 nM antisense oligonucleotide) was found to be 59%.

In the case of “548515 (antisense eA*e[5mC]*k[5mC]*d[5mC]*dG*dT*d[5mC]*dA*dG*d[5mC]*d[5mC]*dT*d[5mC]*kA*kG*e[5mC]) [compound 548515]”, the “% inhibition” value under setting [2] is reported as 59%.

In the case of “548634 (antisense eG*e[5mC]*k[5mC]*dT*dT*dA*dT*dT*d[5mC]*dT*dG*dT*dG*k[5mC]*kA*eA) [compound 548634]”, under setting [1], the “% inhibition” value is 0%.

As to “548052 (e[5mC]*eA*kA*dA*dG*dG*dA*dG*d[5mC]*d[5mC]*dT*dG*dG*kA*kG*eT; antisense) [compound 548052]”, the “% inhibition” value under setting [5] is on record as 43%.

“548562 (antisense eA*eG*kA*dT*dG*dA*d[5mC]*d[5mC]*dT*dG*d[5mC]*dA*dG*kA*kT*eG) [compound 548562]”: the “% inhibition” value under setting [6] was determined as 50%.

In the case of “548119 (antisense eT*eG*kG*dA*d[5mC]*dT*dG*d[5mC]*dT*dT*d[5mC]*dT*d[5mC]*kA*kT*eG) [compound 548119]”, the “% inhibition” value under setting [7] is 25%.

As to “548151 (eG*eG*kG*d[5mC]*dT*dT*d[5mC]*dA*dG*d[5mC]*d[5mC]*dA*dG*kA*k[5mC]*eA; antisense) [compound 548151]”, the “% inhibition” value under setting [8] was 35%.

For the substance “548181 (eG*eT*k[5mC]*dA*dT*dG*dG*dA*dG*dA*dT*d[5mC]*dT*k[5mC]*kA*eG; antisense) [compound 548181]”, the “% inhibition” value under setting [8] came to 55%.

Take “548060 (e[5mC]*eT*kT*dG*dT*dG*dT*d[5mC]*dA*d[5mC]*d[5mC]*dT*dT*kT*kG*eG; antisense) [compound 548060]”: under setting [5], the “% inhibition” value is 76%.

Regarding “548008 (eT*e[5mC]*kT*d[5mC]*dA*dA*dA*dG*dA*dG*dT*dA*dA*k[5mC]*k[5mC]*eA; antisense) [compound 548008]”, the “% inhibition” value under setting [5] turned out to be 71%.

“548000 (antisense e[5mC]*e[5mC]*k[5mC]*dT*dT*dG*dT*dG*dT*d[5mC]*d[5mC]*d[5mC]*dA*kT*kA*e[5mC]) [compound 548000]”: under setting [5], the “% inhibition” value worked out at 54%.

Turning to “547781 (antisense e[5mC]*eA*kA*dT*dT*dG*d[5mC]*dT*dT*d[5mC]*dT*dT*dG*kG*kA*eG) [compound 547781]”, under setting [9], the “% inhibition” value was determined as 49%.

With “548593 (e[5mC]*eA*kT*d[5mC]*d[5mC]*d[5mC]*dT*dG*dA*d[5mC]*dA*dG*dG*kT*k[5mC]*e[5mC]; antisense) [compound 548593]”, the “% inhibition” value under setting [6] is 61%.

For “548492 (antisense eG*e[5mC]*k[5mC]*d[5mC]*dA*dA*dT*dG*dT*d[5mC]*d[5mC]*dT*dA*kA*k[5mC]*e[5mC]) [compound 548492]”, the “% inhibition” value under setting [2] is reported as 51%.

Consider “548605 (eT*eG*kG*d[5mC]*dG*dG*dG*dA*dT*dT*dG*dG*dT*kG*kG*eT; antisense) [compound 548605]”, for which the “% inhibition” value under setting [6] stood at 12%.

For the substance “547829 (eA*e[5mC]*k[5mC]*dT*dG*dT*dT*d[5mC]*dG*dA*dT*dG*dT*kA*k[5mC]*eT; antisense) [compound 547829]”, the “% inhibition” value under setting [9] is on record as 59%.

Turning to “548214 (e[5mC]*eA*kG*dA*d[5mC]*dA*dG*d[5mC]*d[5mC]*d[5mC]*dA*d[5mC]*d[5mC]*kA*kA*e[5mC]; antisense) [compound 548214]”, the “% inhibition” value under setting [8] came to 55%.

With “547903 (e[5mC]*eT*k[5mC]*dA*dG*d[5mC]*dA*d[5mC]*d[5mC]*dT*dT*dT*dA*kT*kA*eG; antisense) [compound 547903]”, the “% inhibition” value is, setting by setting: under setting [3], 62%; under setting [4], 6%.

“548100 (antisense eA*e[5mC]*kT*d[5mC]*dA*dG*d[5mC]*dG*dA*d[5mC]*dT*dT*dT*kG*kG*eT) [compound 548100]”: the “% inhibition” value under setting [7] stood at 25%.

Turning to “548028 (eG*eG*kT*dG*dT*d[5mC]*d[5mC]*dT*dA*dT*dG*dA*dG*kT*kG*eA; antisense) [compound 548028]”, the “% inhibition” value under setting [5] is listed as 38%.

Regarding “548057 (e[5mC]*eA*kT*dA*dT*dT*dG*dG*dT*dT*dT*dT*dT*kG*kG*eA; antisense) [compound 548057]”, under setting [5], the “% inhibition” value is listed as 49%.

“548483 (e[5mC]*eT*kA*d[5mC]*dA*dG*dA*dT*d[5mC]*dA*dT*d[5mC]*d[5mC]*k[5mC]*kT*eA; antisense) [compound 548483]”: the “% inhibition” value under setting [2] worked out at 5%.

For “548035 (e[5mC]*eA*k[5mC]*dT*dA*dT*dA*dG*dA*dT*dG*d[5mC]*dG*k[5mC]*k[5mC]*eA; antisense) [compound 548035]”, under setting [5], the “% inhibition” value was 44%.

As for “548683 (antisense eA*eG*kT*dA*dT*d[5mC]*dT*d[5mC]*dA*dT*dG*dT*dG*k[5mC]*k[5mC]*eT) [compound 548683]”, under setting [1], the “% inhibition” value is 46%.

In the case of “547891 (eA*eT*kT*dG*dT*dT*d[5mC]*d[5mC]*dG*dG*dT*dA*d[5mC]*kT*k[5mC]*eT; antisense) [compound 547891]”, the “% inhibition” value stood at 84% under setting [3] and 88% under setting [4].

On to “548663 (antisense eG*e[5mC]*k[5mC]*d[5mC]*dT*dA*dG*dA*dA*dG*dG*dG*d[5mC]*k[5mC]*k[5mC]*eA) [compound 548663]”, for which, under setting [1], the “% inhibition” value was 20%.

Turning to “547935 (eA*e[5mC]*kT*d[5mC]*dG*dA*dT*dT*dT*dT*d[5mC]*d[5mC]*dA*kT*kA*e[5mC]; antisense) [compound 547935]”, the “% inhibition” value (HepaRG cells, electroporation with 1,000 nM antisense oligonucleotide, approximately 24 hours, primer probe set RTS3454, relative to untreated control cells, experiment of Table 23) was determined as 27%.

“548087 (antisense eA*e[5mC]*kT*dA*dA*dG*dG*dG*dA*d[5mC]*d[5mC]*dA*d[5mC]*k[5mC]*kT*eG) [compound 548087]”: under setting [7], the “% inhibition” value was determined as 24%.

In the case of “548287 (eG*eT*k[5mC]*dA*dA*dA*dG*dA*dG*dT*dG*dT*d[5mC]*k[5mC]*kA*e[5mC]; antisense) [compound 548287]”, the “% inhibition” value under setting [10] came to 38%.

As to “547896 (eT*eA*kG*dG*d[5mC]*dA*dA*dT*dT*dG*dT*dT*d[5mC]*k[5mC]*kG*eG; antisense) [compound 547896]”, the “% inhibition” value under setting [4] is listed as 95%.

On to “548282 (antisense eG*eT*kG*dG*dG*dT*dT*dT*dG*d[5mC]*dA*d[5mC]*dA*kT*kG*eG) [compound 548282]”, for which, under setting [10], the “% inhibition” value stood at 73%.

In the case of “548085 (antisense eT*eA*kA*dG*dG*dG*dA*d[5mC]*d[5mC]*dA*d[5mC]*d[5mC]*dT*kG*kA*eA) [compound 548085]”, the “% inhibition” value under setting [7] stood at 8%.

Regarding “547895 (eA*eG*kG*d[5mC]*dA*dA*dT*dT*dG*dT*dT*d[5mC]*d[5mC]*kG*kG*eT; antisense) [compound 547895]”, the “% inhibition” value under setting [4] was found to be 94%.
